Measurements taken from patent publication US20250144047A1, “PHARMACEUTICAL COMPOSITION FOR PREVENTING, AMELIORATING, OR TREATING CANCER CONTAINING 8-PARADOL” (KDBIO CORP., priority 2022, published 2025).

How the values were obtained:
AGS cells [1] = test: Western blot analysis of AGS cells; type: cell-based, human
Experimental: Mitochondria of AGS cells were extracted using an extraction kit (Abcam, Cambridge, MA, USA). According to the instructions for using the kit, the AGS cells were washed with cold PBS and homogenized in a cold glass vortex mixer. For mitochondrial-rich supernatants, the homogenates were centrifuged at 1000 rpm for 10 minutes at 4° C. For whole protein extraction, AGS cells were processed with samples at various concentrations for 24 hours. The cells were dissolved using Pierce™ RIPA buffer (Thermo Fisher Scientific, Rockford, IL, USA) together with protease inhibitor cocktail (GenDEPOT, TX, USA). The cell-dissolved solution formed in the above manner was centrifuged at 12,000 rpm for 20 minutes. The protein was loaded into a 10% SDS-PAGE gel using a protein gel electrophoresis chamber system and transferred to a PVDF membrane (Thermo Fisher Scientific, Rockford, IL, USA). A PBST solution containing 5% skim milk was used to block the membrane at 25° C. for 1 hour. Then, the membrane was incubated overnight at 4° C. with primary antibodies. Finally, the membrane was incubated with the secondary antibodies at 25° C. for 1 hour, and a protein band was detected using West-Q Pico ECL Solution (GenDEPOT, TX, USA). The results were quantified using ImageJ software.

RAW 264.7 cells = type: cell-based
Experimental: (§1) AGS cells were grown in RPMI medium containing 10% FBS and 1% PS. HEK293 and RAW264.7 cells were grown in DMEM medium containing 10% FBS and 1% PS under conditions of 37° C., 5% CO2 and 95% air.
(§2) In order to evaluate toxicity to each cell, the sample was incubated in each cell (1×10^5 cells/well) cultured in the above manner for 24 hours, and then cytotoxicity to each cell was examined by using the MTT assay.

[2] = parameters: species or system mice; details: mouse, in vivo, po
Experimental: Male nude mice (CAnN.Cg-Foxn1-nu, 4 weeks old, 20 g to 22 g) were purchased from OrientBio (Seongnam, Republic of Korea). The mice were placed in a chamber with conditions maintained at 23° C. and 50% humidity with a period of 12 hours of light and 12 hours of darkness. All animal experiments were conducted according to the National Institutes of Health's Laboratory Animal Care and Use Guidelines (NIH Publications No. 8023, revised 1996) and the Kyung Hee University's Animal Care and Use Guidelines ([…]-441, approval data: Sep. 28, 2021). […] The control group was administered with only 0.9% of general saline during this period. Body weights and tumor volumes of the mice were measured daily in all mice during the study period. All mice were euthanized after the end of the experiments. Blood, liver, spleen, kidney, and tumor tissues were extracted and weighed. In order to obtain the protein of tumor tissue, a portion of the tissue was processed with RIPA buffer containing a protease inhibitor cocktail. Then, the expression degree of a specific protein (determined by Western blot) was determined.

HEK293 cells = type: cell-based, human
Experimental: as §1, §2

[3] = test system: AGS xenograft tumor tissue; test: IHC staining of tumor tissue; type: in vivo; details: tumor tissue of administered mice
Experimental: The tumor tissue was fixed with 10% formalin and embedded with paraffin. Immunohistochemical (IHC) staining was performed using a mouse and rabbit-specific HRP/DAB (ABC) detection IHC kit (Abcam, Cambridge, MA, USA). The tissue was observed through an optical microscope, and the presence of a specific protein in the tumor tissue was determined to be the presence of a brown yellow color. The results were evaluated using ImageJ software.

AGS cells [4] = test: Colony formation assay of AGS cells; type: cell-based, human; details: 5-FU positive control
Experimental: Live/dead cells were stained using a live/dead cell staining kit (Thermo Fisher Scientific, Rockford, IL, USA). Specifically, apoptosis was induced by processing AGS cells (2×10^5 cells/well) as a sample for 24 hours. After staining the cells for 30 minutes using the staining kit, the cells were observed using a Leica DM IRB fluorescence microscope (Wetzlar, Germany). In addition, for the colony formation assay, AGS cells were cultured at a density of 500 cells/well and then processed with the sample. Then, the cells were stained with 0.5% crystal violet (Sigma-Aldrich, St. Louis, MO, USA) for 15 minutes […], and then the stained colonies were observed and quantified using ImageJ.

AGS cells [5] = test: LC3 immunofluorescence staining; type: cell-based, human
Experimental: AGS cells (1×10^5 cells) were cultured on 6-well plates and processed with samples for 24 hours. For cell fixation and permeation, 4% paraformaldehyde and 0.1% Triton X-100 were used, respectively. After blocking with 2% BSA for 1 hour, the cells were incubated with primary antibodies on LC3 for 3 hours at 25° C. Then, the cells were incubated with fluorescein isothiocyanate (FITC)-conjugated secondary antibodies (Abcam, Cambridge, MA, USA) for 30 minutes. Finally, fluorescence was captured and analyzed using the Leica fluorescence microscope and ImageJ software.

[6] = 8-paradol and CQ in combination, compared to 8-paradol solely

Structure (SMILES): CCCCCCCCCC(=O)CCc1ccc(O)c(OC)c1 [Purified Compound 3, 8-paradol]
- Bcl-2 expression (AGS cells [1]; [6]): significantly increased
- expression degree of Bax, Cytochrome c and caspase-3/-9 (AGS cells [1]; [6]): significantly decreased
- conversion to LC3b and degradation of p62 (AGS cells [1]; 8-paradol combined with CQ 30 μM, compared to 8-paradol solely): more strongly induces
- expression of TOM20 and TIM23 (AGS cells [1]; 8-paradol in combination with CQ, compared to 8-paradol solely): increased
- amount of Bax, Cytochrome C and Cleaved-caspase-3/-9 (AGS cells [1]; AGS cells): increased
- amount of Bcl-2 (AGS cells [1]; AGS cells): decreased
- expression of p62 (AGS cells [1]; AGS cells): degraded p62 in a dose-dependent manner
- protein expression of Pink1 and Parkin (AGS cells [1]; AGS cells): significantly increased
- protein expression of TOM20 and TIM23 (AGS cells [1]; AGS cells, compared with control group): decreased
- conversion from LC3a to LC3b (AGS cells [1]; AGS cells, dose- and time-dependent): promoted
- Parkin concentration of the mitochondrial fraction (AGS cells [1]; AGS cells, mitochondrial fraction): increased
- cytotoxicity to normal cells RAW 264.7 (RAW 264.7 cells): did not express significant cytotoxicity
- liver and kidney indices versus Con-T group [2]: did not exhibit a significant difference
- body weight ([2]; 8 mg/kg): 19.5 g
- cytotoxicity to normal cells HEK293 (HEK293 cells): did not express significant cytotoxicity
- density of LC3 and caspase-3 in tumor tissue [3]: increased
- colony formation ability compared with 5-FU-processed AGS cells (AGS cells [4]): significantly inhibited
- endogenous LC3 spots (AGS cells [5]): increase
